Source: US10696642B2, “TEAD transcription factor autopalmitoylation inhibitors” (The General Hospital Corporation, priority 2015, dated 2020)

Biological target: T1, TEAD2 (Homo sapiens, UniProt Q15562)
T1 construct: The cDNA encoding human TEAD2 (residues 217-447, TEAD2^217-447) was cloned into a pET29 vector; made in house; host or cells: E. coli BL21(DE3)-T1R
Test: In vitro palmitoylation assay to measure potency of TEAD palmitoylation inhibitors (Example 11)
Assay type: biochemical
Conditions: compound at 5 μM, 3 μM alkyne palmitoyl-CoA, normalized to DMSO control
Description: Recombinant His6TEAD2 (500 ng) protein was incubated with DMSO control or TEAD inhibitors (MGH-CP1 and its analogues) at 5 μM for 30 min. 3 μM of alkyne palmitoyl-CoA (Cayman Chemical) were then added into the reaction mixture and incubated for 2 h in 50 mM MES, pH 6.4. The reaction was quenched with 1% SDS followed by Click reaction with biotin-azide. Samples were analyzed by SDS-PAGE and streptavidin HRP. Bands intensity obtained from streptavidin blot were quantified using Image J (NIH), and normalized to DMSO control. The percentage of inhibition was determined by comparing to DMSO control and non-palmitoylated TEAD2. To determine the dose-dependency of the inhibitors, various concentrations of the compounds (10 nM to 20 μM) were incubated with TEAD2 protein for 30 min, and then 3 μM of alkyne palmitoyl-CoA (Cayman Chemical) were then added into the reaction mixture and incubated for 2 h in 50 mM MES, pH 6.4. The reaction was then quenched and analyzed similarly as descried above. The level of palmitoylation was then determined by the streptavidin blot, and plotted by Prism to determine the IC50 values.
Compounds (4) to (53) were tested for activity in inhibiting TEAD palmitoylation in the assay of Example 11. The data for the compounds provided in Table 2 as a percentage of inhibition of TEAD2 palmitoylation by the compound at a concentration of 5 μM.

T1 sequence (Q15562 217-447): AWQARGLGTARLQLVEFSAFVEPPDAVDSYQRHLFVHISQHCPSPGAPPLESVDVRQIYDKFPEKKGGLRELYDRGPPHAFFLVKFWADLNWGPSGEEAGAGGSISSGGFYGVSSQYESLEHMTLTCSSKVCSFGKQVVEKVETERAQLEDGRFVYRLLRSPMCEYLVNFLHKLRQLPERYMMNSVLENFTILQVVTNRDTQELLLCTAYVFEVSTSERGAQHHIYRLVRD

SMILES | inhibition at 5 µM [%]
CC(C)c1ccc(NC(=O)CSc2nnc[nH]2)cc1 | 24
Cn1c(SCC(=O)Nc2ccc(C34CC5CC(CC(C5)C3)C4)cc2)nnc1-c1ccccc1 | 70
CCn1c(SCC(=O)Nc2ccc(C34CC5CC(CC(C5)C3)C4)cc2)nnc1-c1ccccc1O | 10
CCn1c(CN2CCOCC2)nnc1SCC(=O)Nc1ccc(C23CC4CC(CC(C4)C2)C3)cc1 | 10
O=C(CSc1nnc[nH]1)Nc1ccc(-c2ccccc2)cc1 | 89
Cn1cnnc1SCC(=O)Nc1ccc(C23CC4CC(CC(C4)C2)C3)cc1Br | 12
O=C(CSc1nnc[nH]1)Nc1ccc(-c2cccc3ccccc23)cc1 | 90
O=C(CSc1nnc[nH]1)Nc1ccc(-c2ccccc2)cc1Br | 89
O=C(CSc1nnc[nH]1)Nc1ccc(-c2cc3ccccc3c3ccccc23)cc1 | 56
O=C(CSc1nnc[nH]1)Nc1ccc(-c2cc(C(F)(F)F)cc(C(F)(F)F)c2)cc1 | 95
O=C(CSc1nnc[nH]1)Nc1ccc(-c2cc(-c3ccccc3)cc(-c3ccccc3)c2)cc1 | 68
O=C(CSc1nnc[nH]1)Nc1ccc(-c2cccc(C(F)(F)F)c2)cc1 | 88
O=C(CS(=O)(=O)c1nnc[nH]1)Nc1ccc(C23CC4CC(CC(C4)C2)C3)cc1 | < 10
O=C(CCCSc1nnc[nH]1)Nc1ccc(C23CC4CC(CC(C4)C2)C3)cc1 | 100
Cc1ccc(-c2nnc(SCCC(=O)Nc3cccc(C45CC6CC(CC(C6)C4)C5)c3)o2)cc1 | 80
O=C(CSc1nnc[nH]1)Nc1ccc(-c2cc(-c3ccccc3)cc(C(F)(F)F)c2)cc1 | 90
O=C(CSc1nnc[nH]1)Nc1ccc(C23CC4CC(CC(C4)C2)C3)cc1 [drawing 23] | 85
Cc1cccc(C)c1-c1ccc(NC(=O)CSc2nnc[nH]2)cc1 [drawing 42] | 100
Nc1nncn1CC(=O)Nc1ccc(C23CC4CC(CC(C4)C2)C3)cc1 [drawing 55] | 38

Other lines, results leading:

inhibition at 5 µM [%] | SMILES
30 | CC(C)(C)c1ccc(NC(=O)CSc2nnc[nH]2)cc1
80 | COc1ccc(-c2nnc(SCC(=O)Nc3ccc(C45CC6CC(CC(C6)C4)C5)cc3)[nH]2)cc1
10 | Cn1cnnc1SCC(=O)Nc1ccc(C23CC4CC(CC(C4)C2)C3)cc1
23 | Cn1cnnc1SCC(=O)Nc1ccc(-c2ccccc2)cc1
87 | O=C(CSc1nnc[nH]1)Nc1ccc(C23CC4CC(CC(C4)C2)C3)cc1Br
93 | O=C(CSc1nnc[nH]1)Nc1ccc(-c2ccc(C3CCCCC3)cc2)cc1
100 | CC(C)(C)c1ccc(-c2ccc(NC(=O)CSc3nnc[nH]3)cc2)cc1
100 | Cc1cc(C)cc(-c2ccc(NC(=O)CSc3nnc[nH]3)cc2)c1
97 | CCCc1ccc(-c2ccc(NC(=O)CSc3nnc[nH]3)cc2)cc1
70 | O=C(CSc1nnc[nH]1)Nc1ccc(-c2cccc(-c3ccccc3)c2)cc1
45 | O=C(CNc1nnc[nH]1)Nc1ccc(C23CC4CC(CC(C4)C2)C3)cc1
100 | O=C(CCSc1nnc[nH]1)Nc1ccc(C23CC4CC(CC(C4)C2)C3)cc1
68 | O=C(CSc1nncs1)Nc1ccc(C23CC4CC(CC(C4)C2)C3)cc1
39 | O=C(CSc1nnc[nH]1)Oc1ccc(C23CC4CC(CC(C4)C2)C3)cc1
40 | CCOc1ccc2nc(SCC(=O)Nc3ccc(C45CC6CC(CC(C6)C4)C5)cc3)sc2c1
53 | Cc1ccc(-c2nnc(SCC(=O)Nc3ccc(C45CC6CC(CC(C6)C4)C5)cc3)o2)cc1

inhibition at 5 µM [%] | SMILES
47 | CCOc1ccc2nc(SCCC(=O)Nc3ccc(C45CC6CC(CC(C6)C4)C5)cc3)sc2c1
76 | Cc1nnc(SCC(=O)Nc2ccc(C34CC5CC(CC(C5)C3)C4)cc2)o1
80 | Cc1nnc(SCCC(=O)Nc2cccc(C34CC5CC(CC(C5)C3)C4)c2)o1
56 | O=C(CSc1nnc(-c2ccc(Cl)cc2Cl)o1)Oc1ccc(C23CC4CC(CC(C4)C2)C3)cc1
63 | O=C(CCSc1nnc(-c2ccc(Cl)cc2Cl)o1)Nc1cccc(C23CC4CC(CC(C4)C2)C3)c1
58 | Cc1ccc(-c2nnc(SCCCC(=O)Nc3ccc(C45CC6CC(CC(C6)C4)C5)cc3)o2)cc1
< 10 | O=C(Nc1ccc(C23CC4CC(CC(C4)C2)C3)cc1)c1cccnc1Nc1cccc(C(F)(F)F)c1
< 10 | O=C(CSc1nnc[nH]1)N(c1cccc(C(F)(F)F)c1)c1ccccn1
100 | O=C(CSc1nnc[nH]1)Nc1ccc(-c2cccc(-c3cccnc3)c2)cc1
100 | O=C(CSc1nnc[nH]1)Nc1ccc(-c2cccc(-c3ccncc3)c2)cc1
95 | O=C(CSc1nnc[nH]1)Nc1ccc(-c2cc(-c3cccnc3)cc(-c3cccnc3)c2)cc1
90 | O=C(CSc1nnc[nH]1)Nc1ccc(-c2cc(-c3ccncc3)cc(-c3ccncc3)c2)cc1
90 | O=C(CSc1nnc[nH]1)Nc1ccc(-c2ccncc2)cc1
95 | Cc1cc(-c2ccc(NC(=O)CSc3nnc[nH]3)cc2)cc(C)n1
78 | O=C(CSc1nnc[nH]1)Nc1ccc(-c2cc(-c3ccccc3)nc(-c3ccccc3)c2)cc1

Tested on: HuH7 cells
Test: Colony formation, HuH7
Assay type: cell-based, human
Conditions: tested at 0-20 μM (FIG. 29)
Description: Assays were performed to measure inhibition of cancer cell proliferation in HuH7 cells by compounds (4), (22) and (36), which were each tested at 0-20 μM.

SMILES | inhibition of cancer cell proliferation / colony formation in HuH7 cells
Cc1cccc(C)c1-c1ccc(NC(=O)CSc2nnc[nH]2)cc1 [Compound 23] | effective
Nc1nncn1CC(=O)Nc1ccc(C23CC4CC(CC(C4)C2)C3)cc1 [Compound 36] | less effective
